Test results as given in a melting point compilation (Tetko et al.).

SMILES | melting point [°C]
O=C(Nc1ccccc1)C(Cl)(Cl)Cl | 96
O=C(C=Cc1ccc(O)c(O)c1)OC1CC(O)(C(=O)O)CC(O)C1O (configuration not stated) | 205 to 209
CCOc1ccc2c(C)cc(=O)oc2c1 | 115
Cc1cc(=S)cc(C)o1 | 142
c1ccc(OCCOCCOc2ccccc2)cc1 | 66
O=Cc1c(F)ccc(F)c1Cl | 47
OCC(O)CC(F)(F)C(F)(F)C(F)(F)C(F)(F)C(F)(F)C(F)(F)C(F)(F)C(F)(F)F (configuration not stated) | 114 to 116
O=C(C=Cc1ccccc1)c1ccc(F)cc1 | 79 to 80
CCOC(=O)CCC(C)C1CCC2C3C=CC4CC(OC(C)=O)CCC4(C)C3CC(OC(C)=O)C12C (configuration not stated) | 83 to 84
Cn1nnc2cc(C(=O)O)ccc21 | 250
C=C1C(=O)C23C(OC)CC4C5(C)CCCC4(COC5OC(C)=O)C2C(OC(C)=O)CC1C3OC(C)=O (configuration not stated) | 214
CSc1nc2cc(NCc3ccc(Cl)cc3)ccc2[nH]1 | 248
Cn1[nH]c([N+](=O)[O-])c2c(=O)ccnc1-2 | 223
O=C(O)c1ccc(C(=O)C(F)(F)F)cc1 | 178 to 181
COc1cc(OC(C)=O)c2c(=O)c(OC(C)=O)c(-c3ccc(OCc4ccccc4)c(OC(C)=O)c3)oc2c1 | 182 to 192
Cc1ccc2cc(F)ccc2c1 | 73 to 74
O=[N+]([O-])c1ccc(N=C=Nc2ccc([N+](=O)[O-])cc2)cc1 | 166 to 168
CCCCCCCCCCCCOCCOCCOCCOCCOCCOCCO | 27
Oc1cc2c(cc1O)Cc1cc(O)c(O)cc1Cc1cc(O)c(O)cc1C2 | 287 to 289
Cc1cccc2cc3ccccc3c(=O)n12 | 78
CC(=NO)c1ccc(Cl)c(Cl)c1 | 108 to 111
COC(=O)C1(C)CCC(CCc2ccccc2)C1(C)C (configuration not stated) | 44
COc1cc(C2Nn3c(nnc3-c3cccnc3)S2)ccc1O (configuration not stated) | 216

SMILES | melting point [°C]
O=C1C=C(NCc2ccc(Cl)cc2)C(=O)c2ccccc21 | 230
Cc1ccc(C(N)=NO)cc1F | 105 to 107
CCCC(=O)Nc1ccc(OCC(O)CNC(C)C)c(C(C)=O)c1 (configuration not stated) | 119
Cc1ccc(N)c([N+](=O)[O-])c1 | 116
CN(C)c1ccc(F)cc1 | 36
CC1(c2ccccc2)CNCCO1 (configuration not stated) | 36
O=C(O)Cc1nn(Cc2nc3cc(C(F)(F)F)ccc3s2)c(=O)c2ccccc12 | 197
CCn1c2ccccc2c2cc(C=O)ccc21 | 85 to 91
CCCCc1cc2ccccc2c(OCCN(C)C)n1 | 146
CCC#CC(=O)O | 50
CCCCCCCOc1ccc(-c2ccc(C#N)cc2)cc1 | 54
COc1ccc2c(CC(=O)O)coc2c1 | 123 to 124
CN(C)c1ccc(C2Nc3nc(C(F)(F)F)nn3C(N)=C2C#N)cc1 (configuration not stated) | 164
Nc1cc(N)c(C(=O)CI)cc1C(=O)CI | 165
N#CCCCOc1ccccc1 | 45.5
O=[N+]([O-])c1ccc(-c2csc(CCl)n2)cc1 | 154 to 158
CC(C)[C@@H](NC(=O)OC(C)(C)C)C(=O)O | 164 to 165
CC(C)(C=O)C(c1ccccc1)C(C(=O)O)C(=O)O (configuration not stated) | 153
C=Cc1ccc(C)cc1 | -34
CCOC(=O)c1c2ccccc2nn1C | 50 to 52
O=S(=O)(Cl)c1ccc2c(c1)OCCO2 | 66 to 68
CC(=O)c1c2c(c(C(C)=O)c3c1CCCN3)NCCC2 | 143
CCOc1cc(C(=S)N2CCCCC2)ccc1O | 123

SMILES | melting point [°C]
Cn1c(=O)c(C2=NNC(=O)C2=C2c3ccccc3-c3ccccc32)c(O)c2ccccc21 | 295
NNC(=O)c1cccc(F)c1 | 138 to 139
N#Cc1c(C(F)(F)F)cc(-c2ccccc2)[nH]c1=O | 301 to 303
C=COCCCCCCCCCCCCCCCC | 16
NCCOc1ccccc1Cl | 40
Nc1ccc(-n2cccc2)cc1 | 81
Nc1c(Br)cc([N+](=O)[O-])cc1Br | 207
NC(=O)C#CC(N)=O | 238
Clc1nccc2ccccc12 | 34
Nc1ccc2cc3ccc(N)cc3nc2c1 | 285
Cc1ccc2ccccc2c1N | 32
Brc1ccc(-c2ccno2)s1 | 66 to 67
CN1CCCN(C)C1=O | -20
C=CCOC(=O)CCC | -80
CCOc1nc2ccccc2c(=O)n1N | 97 to 98
O=[N+]([O-])c1ccc(OS(=O)(=O)C(F)(F)F)cc1 | 52
Cc1ccc(-c2nc(C(=O)O)cs2)cc1 | 170
O=C(O)C(F)(F)C(F)(F)C(F)(F)C(F)(F)C(F)(F)C(F)(F)C(F)(F)C(F)(F)F | 65
CCOC(=O)c1c(C)cc(=O)oc1C | 17 to 18
CN(C)c1ccc(CCC2CCc3ccccc3N2N=O)cc1 (configuration not stated) | 91
COc1cc(N)c(C(c2ccc(C)o2)c2ccc(C)o2)cc1OC | 79
O=C1CCCC2Cc3ccccc3C(=O)C12 (configuration not stated) | 79
NC(=O)NNc1ccccc1 | 174 to 176

SMILES | melting point [°C]
Cc1ccc([Si](C)(Cl)Cl)cc1 | 57
Cc1cc(C)cc(OCC2CNC(=O)O2)c1 (configuration not stated) | 122
FC(F)(F)C(F)(F)C(F)(F)C(F)(F)I | -68
C#CC1(O)CCC2(C)C(CCC3C2CCC2(C)C3CCC23OCCO3)C1 (configuration not stated) | 203 to 209
FC(F)(F)c1cccc(-n2cc[nH]c2=S)c1 | 157 to 159
N#Cc1c(C(F)(F)F)cc(-c2cccs2)[nH]c1=O | 293 to 295
CS(=O)(=O)c1ccc(C=O)cc1 | 155 to 161
O=[N+]([O-])c1cc(Br)ccc1O | 92
O=C(O)CS(=O)(=O)CC(=O)O | 182
CCC(C)c1ccccc1O (configuration not stated) | 16
COC(=O)CC(C)=O | 27.5
CC(=O)c1[nH]c(C)cc1C | 118 to 121
O=C(O)COc1cccc(Cl)c1Cl | 174
CCCCCCCCCCCCCCCC(OC)OC | 10
O=C1CC(=O)CC(c2ccco2)C1 | 146 to 149
Nc1ccc2cc[nH]c2c1 | 73
FC(F)(F)c1ccnc(N2CCCNCC2)n1 | 50 to 51
O=C(c1ccc(Br)cc1)c1noc(-c2ccc(Br)cc2)c1S(=O)(=O)c1ccccc1 | 155
FCc1ccccc1 | -35
CC(=CNNc1nc(C)cc(C)n1)c1ccncc1 | 214 to 216
O=C(O)c1ccc(CN2CCCCC2)cc1 | 286 to 293
Clc1ccc2c(c1)N=C(N1CCN(C3=Nc4cc(Cl)ccc4Nc4ccccc43)CC1)c1ccccc1N2 | 333 to 335
CCCCc1ccc(C(=O)O)nc1 | 97
